Data taken from patent US9556179B2 (BRISTOL-MYERS SQUIBB COMPANY, priority 2012, dated 2017).

How the values were obtained:
[1] = target: CK1δ (Homo sapiens (Human), UniProt P48730); experiment: CK1δ kinase assay (Caliper LABCHIP electrophoretic separation of fluoresceinated peptide substrate and product); type: biochemical; conditions: 200 pM enzyme, 50 μM ATP, 22 hours at room temperature
Method in brief: (§1)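 Eleven-concentration compound series in kinase reactions run for 22 hours at room temperature. Terminated with EDTA, with product conversion read by electrophoretic separation. Non-linear regression gave IC50.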

[2] = target: CK1ε (Homo sapiens (Human), UniProt P49674); experiment: CK1ε kinase assay (Caliper LABCHIP electrophoretic separation of fluoresceinated peptide substrate and product); type: biochemical; conditions: 200 pM enzyme, 50 μM ATP, 22 hours at room temperature
CK1ε, sequence (P49674 whole entry): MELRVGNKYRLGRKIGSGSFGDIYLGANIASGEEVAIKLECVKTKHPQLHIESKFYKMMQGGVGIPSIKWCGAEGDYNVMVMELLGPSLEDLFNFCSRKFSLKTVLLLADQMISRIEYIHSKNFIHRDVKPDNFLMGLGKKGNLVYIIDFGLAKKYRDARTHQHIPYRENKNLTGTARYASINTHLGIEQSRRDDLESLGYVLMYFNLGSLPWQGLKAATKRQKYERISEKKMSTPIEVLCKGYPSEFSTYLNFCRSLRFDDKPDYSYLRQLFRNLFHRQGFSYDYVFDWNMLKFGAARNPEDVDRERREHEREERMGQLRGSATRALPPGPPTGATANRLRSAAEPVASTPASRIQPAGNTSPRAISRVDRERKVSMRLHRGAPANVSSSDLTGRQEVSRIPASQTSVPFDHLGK
Method in brief: as §1

CK1δ, sequence (P48730 whole entry): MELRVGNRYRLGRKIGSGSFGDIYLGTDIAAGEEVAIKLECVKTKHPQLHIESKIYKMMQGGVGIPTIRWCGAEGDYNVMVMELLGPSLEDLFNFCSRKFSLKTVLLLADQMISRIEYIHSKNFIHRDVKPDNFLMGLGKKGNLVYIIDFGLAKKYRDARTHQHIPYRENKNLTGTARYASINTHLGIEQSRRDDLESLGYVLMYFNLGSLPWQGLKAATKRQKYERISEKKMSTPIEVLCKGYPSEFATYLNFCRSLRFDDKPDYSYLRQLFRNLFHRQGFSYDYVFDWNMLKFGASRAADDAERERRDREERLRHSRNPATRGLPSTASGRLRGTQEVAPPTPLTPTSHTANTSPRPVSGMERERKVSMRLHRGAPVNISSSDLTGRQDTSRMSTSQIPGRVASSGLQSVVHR

SMILES | IC50 [1] | IC50 [2]
O=C(Nc1cn2nc(-c3c(-c4ccc(F)cc4)ncn3C3CCN(C(=O)CC(F)(F)F)CC3)ccc2n1)c1ccnc(N2CCOCC2)c1 [Compound 108, N-(6-(4-(4-fluorophenyl)-1-(1-(3,3,3-trifluoropropanoyl)piperidin-4-yl)-1H-imidazol-5-yl)imidazo[1,2-b]pyridazin-2-yl)-2-morpholinoisonicotinamide] | 0.306 nM | 3.3 nM
O=C(Nc1cn2nc(-c3c(-c4ccc(F)cc4)nc4ccccn34)ccc2n1)c1cc(Cl)ncc1C(F)(F)F [Compound 199, 2-chloro-N-(6-(2-(4-fluorophenyl)imidazo[1,2-a]pyridin-3-yl)imidazo[1,2-b]pyridazin-2-yl)-5-(trifluoromethyl) isonicotinamide] | 3.24 nM | 16.3 nM
O=C(Nc1cn2nc(-c3c(-c4ccc(F)cc4)ncn3CCO)ccc2n1)c1ccnc(F)c1 [Compound 230, 2-fluoro-N-(6-(4-(4-fluorophenyl)-1-(2-hydroxyethyl)-1H-imidazol-5-yl)imidazo[1,2-b]pyridazin-2-yl)isonicotinamide] | 0.452 nM | 3.38 nM
O=C(CO)Nc1cn2nc(-c3c(-c4ccc(F)cc4)ncn3CCN3CCOCC3)ccc2n1 [Compound 165, N-(6-(4-(4-fluorophenyl)-1-(2-morpholinoethyl)-1H-imidazol-5-yl)imidazo [1,2-b]pyridazin-2-yl)-2-hydroxyacetamide] | 4.64 nM | 53.6 nM
O=C(Nc1cn2nc(-c3c(-c4ccccc4)ncn3CC(F)F)ccc2n1)c1ccnc(F)c1 [Compound 243, N-(6-(1-(2,2-difluoroethyl)-4-phenyl-1H-imidazol-5-yl)imidazo[1,2-b]pyridazin-2-yl)-2-fluoroisonicotinamide] | 0.652 nM | 5.96 nM
O=C(Nc1cn2nc(-c3c(-c4ccc(F)cc4)nc4ccccn34)ccc2n1)c1ccon1 [Compound 208, N-(6-(2-(4-fluorophenyl)imidazo[1,2-a]pyridin-3-yl)imidazo[1,2-b]pyridazin-2-yl)isoxazole-3-carboxamide] | 1.59 nM | 17 nM
COCCn1cnc(-c2ccc(F)cc2)c1-c1ccc2nc(NC(=O)c3ccnc(F)c3)cn2n1 [Compound 233, 2-fluoro-N-(6-(4-(4-fluorophenyl)-1-(2-methoxyethyl)-1H-imidazol-5-yl)imidazo[1,2-b]pyridazin-2-yl)isonicotinamide] | 0.306 nM | 1.17 nM
Cc1nc(-c2ccc(F)cc2)c(-c2ccc3nc(NC(=O)c4ccnn4C)cn3n2)n1C [Compound 352, N-(6-(4-(4-fluorophenyl)-1,2-dimethyl-1H-imidazol-5-yl)imidazo[1,2-b]pyridazin-2-yl)-1-methyl-1H-pyrazole-5-carboxamide] | 0.593 nM | 3.24 nM
O=C(Nc1cn2nc(-c3c(-c4ccc(F)cc4)ncn3C3CN(CCO)C3)ccc2n1)c1ccncc1 [Compound 159, N-(6-(4-(4-fluorophenyl)-1-(1-(2-hydroxyethyl)azetidin-3-yl)-1H-imidazol-5-yl)imidazo[1,2-b]pyridazin-2-yl)isonicotinamide] | 1.31 nM | 5.6 nM
O=C(Nc1cn2nc(-c3c(-c4ccc(F)cc4)ncn3CC3CC(F)(F)C3)ccc2n1)c1ccnc(F)c1 [Compound 249, N-(6-(1-((3,3-difluorocyclobutyl)methyl)-4-(4-fluorophenyl)-1H-imidazol-5-yl)imidazo[1,2-b]pyridazin-2-yl)-2-fluoroiso-nicotinamide] | 0.371 nM | 1.1 nM
O=C(Nc1cn2nc(-c3c(-c4ccc(F)cc4)ncn3-c3ccc(F)cc3)ccc2n1)c1ccnc(F)c1 [Compound 416, N-(6-(1,4-bis(4-Fluorophenyl)-1H-imidazol-5-yl)imidazo[1,2-b]pyridazin-2-yl)-2-fluoroisonicotinamide] | 2.5 nM | 57.4 nM
N#CCC(=O)Nc1cn2nc(-c3c(-c4ccc(F)cc4)ncn3CCN3CCOCC3)ccc2n1 [Compound 164, 2-cyano-N-(6-(4-(4-fluorophenyl)-1-(2-morpholinoethyl)-1H-imidazol-5-yl)imidazo [1,2-b]pyridazin-2-yl) acetamide] | 4.37 nM | 67.3 nM
O=C(Nc1cn2nc(-c3c(-c4ccc(F)cc4)ncn3C3CCN(CCC(F)(F)F)CC3)ccc2n1)c1cc(F)nc(F)c1 [Compound 92, 2,6-difluoro-N-(6-(4-(4-fluorophenyl)-1-(1-(3,3,3-trifluoropropyl)piperidin-4-yl)-1H-imidazol-5-yl)imidazo[1,2-b]pyridazin-2-yl)isonicotinamide] | 1.45 nM | 7.88 nM
Cc1nc(-c2ccc(F)cc2)c(-c2ccc3nc(NC(=O)c4cncs4)cn3n2)n1C [Compound 303, N-(6-(4-(4-fluorophenyl)-1,2-dimethyl-1H-imidazol-5-yl)imidazo[1,2-b]pyridazin-2-yl)thiazole-5-carboxamide] | 3.9 nM | 4.4 nM
Cc1nc(-c2ccc(F)cc2)c(-c2ccc3nc(NC(=O)c4cc5cnccc5[nH]4)cn3n2)n1C [Compound 327, N-(6-(4-(4-fluorophenyl)-1,2-dimethyl-1H-imidazol-5-yl)imidazo[1,2-b]pyridazin-2-yl)-1H-pyrrolo[3,2-c] pyridine-2-carboxamide] | 0.676 nM | 6.08 nM
Cc1nc(-c2cccnc2)sc1C(=O)Nc1cn2nc(-c3c(-c4ccc(F)cc4)ncn3C3CN(CCO)C3)ccc2n1 [Compound 155, N-(6-(4-(4-fluorophenyl)-1-(1-(2-hydroxyethyl)azetidin-3-yl)-1H-imidazol-5-yl)imidazo[1,2-b]pyridazin-2-yl)-4-methyl-2-(pyridin-3-yl)thiazole-5-carboxamide] | 0.451 nM | 7.48 nM
O=C(Nc1cn2nc(-c3c(-c4ccc(F)cc4)ncn3C3CCN(C(=O)C4CC4(F)F)CC3)ccc2n1)c1ccnc(F)c1 (centres unmarked) [Compound 65, N-(6-(1-(1-(2,2-difluorocyclopropanecarbonyl)piperidin-4-yl)-4-(4-fluorophenyl)-1H-imidazol-5-yl)imidazo[1,2-b]pyridazin-2-yl)-2-fluoroisonicotinamide] | 0.256 nM | 1.37 nM
O=C(Nc1cn2nc(-c3c(-c4ccc(F)cc4)ncn3C3CCN(Cc4cocn4)CC3)ccc2n1)c1ccnc(F)c1 [Compound 17, 2-fluoro-N-(6-(4-(4-fluorophenyl)-1-(1-(oxazol-4-ylmethyl)piperidin-4-yl)-1H-imidazol-5-yl)imidazo[1,2-b]pyridazin-2-yl)isonicotinamide] | 2.14 nM | 21.8 nM
O=C(Nc1cn2nc(-c3c(-c4ccc(F)cc4)nc4n3CCC4)ccc2n1)c1ccncc1 [Compound 438, N-(6-(2-(4-Fluorophenyl)-6,7-dihydro-5H-pyrrolo[1,2-a]imidazol-3-yl)imidazo[1,2-b]pyridazin-2-yl)isonicotinamide] | 0.3 nM | 2.1 nM
O=C(Nc1cn2nc(-c3c(-c4ccc(F)cc4)nc4ccc(N5CCCC5)nn34)ccc2n1)c1ccncc1 [Compound 222, N-(2-(4-fluorophenyl)-6-(pyrrolidin-1-yl)-[3,6′-biimidazo[1,2-b]pyridazin]-2′-yl)isonicotinamide] | 30.7 nM | 43.6 nM
Cc1nc(-c2ccc(F)cc2)c(-c2ccc3nc(NC(=O)c4ccc(C#N)cc4)cn3n2)n1C [Compound 356, 4-cyano-N-(6-(4-(4-fluoro-phenyl)-1,2-dimethyl-1H-imidazol-5-yl)imidazo[1,2-b]pyridazin-2-yl)benzamide] | 0.513 nM | 1.91 nM
Cc1cc(C(=O)Nc2cn3nc(-c4c(-c5ccc(F)cc5)nc(C)n4C)ccc3n2)nn1C [Compound 369, N-(6-(4-(4-fluorophenyl)-1,2-dimethyl-1H-imidazol-5-yl)imidazo[1,2-b]pyridazin-2-yl)-1,5-dimethyl-1H-pyrazole-3-carboxamide] | 1.41 nM | 8.74 nM
Cc1nc(-c2ccc(F)cc2)c(-c2ccc3nc(NC(=O)c4ccnc(F)c4)c(Br)n3n2)n1C [Compound 411, N-(3-Bromo-6-(4-(4-fluorophenyl)-1,2-dimethyl-1H-imidazol-5-yl)imidazo[1,2-b]pyridazin-2-yl)-2-fluoroisonicotinamide] | 1.61 nM | 19.4 nM
Cc1nc(-c2ccc(F)cc2)c(-c2ccc3nc(NC(=O)c4cccc5ncccc45)cn3n2)n1C [Compound 328, N-(6-(4-(4-fluorophenyl)-1,2-dimethyl-1H-imidazol-5-yl)imidazo[1,2-b]pyridazin-2-yl)-5-quinolinecarboxamide] | 0.335 nM | 2.13 nM
O=C(Nc1cn2nc(-c3c(-c4ccc(F)cc4)nc4ccccn34)ccc2n1)c1ccnc(N2CCOCC2)c1 [Compound 203, N-(6-(2-(4-fluorophenyl)imidazo[1,2-a]pyridin-3-yl)imidazo[1,2-b]pyridazin-2-yl)-2-morpholinoisonicotinamide] | 0.447 nM | 3.68 nM
COCCN1CCC(n2c(C)nc(-c3ccc(F)cc3)c2-c2ccc3nc(NC(=O)c4ccnc(F)c4)cn3n2)CC1 [Compound 141, 2-fluoro-N-(6-(4-(4-fluorophenyl)-1-(1-(2-methoxyethyl)piperidin-4-yl)-2-methyl-1H-imidazol-5-yl)imidazo [1,2-b]pyridazin-2-yl) isonicotinamide] | 1.03 nM | 16 nM
O=C(Nc1cn2nc(-c3c(-c4ccccc4F)ncn3CC(F)F)ccc2n1)c1ccnc(F)c1 [Compound 246, N-(6-(1,(2,2-difluoroethyl)-4-(2-fluorophenyl)-1H-imidazol-5-yl)imidazo[1,2-b]pyridazin-2-yl)-2-fluoroisonicotinamide] | 0.769 nM | 5.96 nM
Cc1nc(-c2ccc(F)cc2)c(-c2ccc3nc(NC(=O)c4ccccc4CN(C)C)cn3n2)n1C [Compound 392, 2-((dimthylamino)methyl)-N-(6-(4-(4-fluorophenyl)-1,2-dimethyl-1H-imidazol-5-yl)imidazo[1,2-b]pyridazin-2-yl)benzamide] | 16.7 nM | 54.5 nM
